Data reported in ChEMBL document CHEMBL4715855, “N-phenyl ureidobenzenesulfonates, a novel class of promising human dihydroorotate dehydrogenase inhibitors” (Bioorg Med Chem, 2020).

Key:
Assay type in all cases: functional, cell-based
HCC 2998 = test: Antiproliferative activity against human HCC 2998 cells assessed as cell growth inhibition measured after 48 hrs by sulforhodamine B assay; settings: HCC 2998, 48 h
IGROV-1 = test: Antiproliferative activity against human IGROV-1 cells assessed as cell growth inhibition measured after 48 hrs by sulforhodamine B assay; settings: IGROV-1, 48 h
Malme-3M = test: Antiproliferative activity against human Malme-3M cells assessed as cell growth inhibition measured after 48 hrs by sulforhodamine B assay
KM12 = test: Antiproliferative activity against human KM12 cells assessed as cell growth inhibition measured after 48 hrs by sulforhodamine B assay; settings: KM12, 48 h
U-251 = test: Antiproliferative activity against human U-251 cells assessed as cell growth inhibition measured after 48 hrs by sulforhodamine B assay; settings: U-251, 48 h
OVCAR-8 = test: Antiproliferative activity against human OVCAR-8 cells assessed as cell growth inhibition measured after 48 hrs by sulforhodamine B assay; settings: OVCAR-8, 48 h
MOLT-4 = test: Antiproliferative activity against human MOLT-4 cells assessed as cell growth inhibition measured after 48 hrs by sulforhodamine B assay; settings: MOLT-4, 48 h
HT-29 [1] = test: Antiproliferative activity against human HT-29 cells assessed as cell growth inhibition measured after 48 hrs by SRB assay; settings: HT-29, 48 h
DU-145 = test: Antiproliferative activity against human DU-145 cells assessed as cell growth inhibition measured after 48 hrs by sulforhodamine B assay; settings: DU-145, 48 h
MCF7 [2] = test: Antiproliferative activity against human MCF7 cells assessed as cell growth inhibition measured after 48 hrs by SRB assay; settings: MCF7, 48 h
CCRF-CEM = test: Antiproliferative activity against human CCRF-CEM cells assessed as cell growth inhibition measured after 48 hrs by sulforhodamine B assay
M21 [3] = test: Antiproliferative activity against human M21 cells assessed as cell growth inhibition measured after 48 hrs by SRB assay; settings: M21, 48 h
SK-MEL-2 = test: Antiproliferative activity against human SK-MEL-2 cells assessed as cell growth inhibition measured after 48 hrs by sulforhodamine B assay; settings: SK-MEL-2, 48 h
NCI-H23 = test: Antiproliferative activity against human NCI-H23 cells assessed as cell growth inhibition measured after 48 hrs by sulforhodamine B assay; settings: NCI-H23, 48 h
NCI-H322M = test: Antiproliferative activity against human NCI-H322M cells assessed as cell growth inhibition measured after 48 hrs by sulforhodamine B assay
RXF 393 = test: Antiproliferative activity against human RXF 393 cells assessed as cell growth inhibition measured after 48 hrs by sulforhodamine B assay; settings: RXF 393, 48 h
MDA-MB-435 = test: Antiproliferative activity against human MDA-MB-435 cells assessed as cell growth inhibition measured after 48 hrs by sulforhodamine B assay; settings: MDA-MB-435, 48 h
HT-1080 [4] = test: Antiproliferative activity against human HT-1080 cells assessed as cell growth inhibition measured after 48 hrs by SRB assay; settings: HT-1080, 48 h
BT-549 = test: Antiproliferative activity against human BT-549 cells assessed as cell growth inhibition measured after 48 hrs by sulforhodamine B assay; settings: BT-549, 48 h
UACC-62 = test: Antiproliferative activity against human UACC-62 cells assessed as cell growth inhibition measured after 48 hrs by sulforhodamine B assay; settings: UACC-62, 48 h
OVCAR-4 = test: Antiproliferative activity against human OVCAR-4 cells assessed as cell growth inhibition measured after 48 hrs by sulforhodamine B assay; settings: OVCAR-4, 48 h
SK-OV-3 = test: Antiproliferative activity against human SK-OV-3 cells assessed as cell growth inhibition measured after 48 hrs by sulforhodamine B assay; settings: SK-OV-3, 48 h
SNB-19 = test: Antiproliferative activity against human SNB-19 cells assessed as cell growth inhibition measured after 48 hrs by sulforhodamine B assay; settings: SNB-19, 48 h
UACC-257 = test: Antiproliferative activity against human UACC-257 cells assessed as cell growth inhibition measured after 48 hrs by sulforhodamine B assay; settings: UACC-257, 48 h
PC-3 = test: Antiproliferative activity against human PC-3 cells assessed as cell growth inhibition measured after 48 hrs by sulforhodamine B assay; settings: PC-3, 48 h
NCI-H460 = test: Antiproliferative activity against human NCI-H460 cells assessed as cell growth inhibition measured after 48 hrs by sulforhodamine B assay; settings: NCI-H460, 48 h
NCI-H226 = test: Antiproliferative activity against human NCI-H226 cells assessed as cell growth inhibition measured after 48 hrs by sulforhodamine B assay; settings: NCI-H226, 48 h
HCT-15 = test: Antiproliferative activity against human HCT-15 cells assessed as cell growth inhibition measured after 48 hrs by sulforhodamine B assay; settings: HCT-15, 48 h
TK-10 = test: Antiproliferative activity against human TK-10 cells assessed as cell growth inhibition measured after 48 hrs by sulforhodamine B assay; settings: TK-10, 48 h
OVCAR-5 = test: Antiproliferative activity against human OVCAR-5 cells assessed as cell growth inhibition measured after 48 hrs by sulforhodamine B assay; settings: OVCAR-5, 48 h
SK-MEL-28 = test: Antiproliferative activity against human SK-MEL-28 cells assessed as cell growth inhibition measured after 48 hrs by sulforhodamine B assay; settings: SK-MEL-28, 48 h
SK-MEL-5 = test: Antiproliferative activity against human SK-MEL-5 cells assessed as cell growth inhibition measured after 48 hrs by sulforhodamine B assay; settings: SK-MEL-5, 48 h
MDA-MB-231 = test: Antiproliferative activity against human MDA-MB-231/ATCC cells assessed as cell growth inhibition measured after 48 hrs by sulforhodamine B assay; settings: MDA-MB-231, 48 h
LOX IMVI = test: Antiproliferative activity against human LOX IMVI cells assessed as cell growth inhibition measured after 48 hrs by sulforhodamine B assay
SF-539 = test: Antiproliferative activity against human SF-539 cells assessed as cell growth inhibition measured after 48 hrs by sulforhodamine B assay; settings: SF-539, 48 h
M14 = test: Antiproliferative activity against human M14 cells assessed as cell growth inhibition measured after 48 hrs by sulforhodamine B assay; settings: M14, 48 h
NCI/ADR-RES = test: Antiproliferative activity against human NCI/ADR-RES cells assessed as cell growth inhibition measured after 48 hrs by sulforhodamine B assay
RPMI-8226 = test: Antiproliferative activity against human RPMI-8226 cells assessed as cell growth inhibition measured after 48 hrs by sulforhodamine B assay; settings: RPMI-8226, 48 h
T47D = test: Antiproliferative activity against human T47D cells assessed as cell growth inhibition measured after 48 hrs by sulforhodamine B assay
[5] = test system: Panel colon (Carcinoma cell lines); test: Antiproliferative activity against human Panel colon (Carcinoma cell lines) assessed as cell growth inhibition measured after 48 hrs by SRB assay
[6] = test system: Panel leukemia (Carcinoma cell lines); test: Antiproliferative activity against human Panel leukemia (Carcinoma cell lines) assessed as cell growth inhibition measured after 48 hrs by SRB assay
SR = test: Antiproliferative activity against human SR cells assessed as cell growth inhibition measured after 48 hrs by sulforhodamine B assay
[7] = test system: Panel NCI-60 (60 carcinoma cell lines); test: Antiproliferative activity against human Panel NCI-60 (60 carcinoma cell lines) assessed as cell growth inhibition measured after 48 hrs by SRB assay
SF-295 = test: Antiproliferative activity against human SF-295 cells assessed as cell growth inhibition measured after 48 hrs by sulforhodamine B assay; settings: SF-295, 48 h
ACHN = test: Antiproliferative activity against human ACHN cells assessed as cell growth inhibition measured after 48 hrs by sulforhodamine B assay
OVCAR-3 = test: Antiproliferative activity against human OVCAR-3 cells assessed as cell growth inhibition measured after 48 hrs by sulforhodamine B assay; settings: OVCAR-3, 48 h
HT-29 [8] = test: Antiproliferative activity against human HT-29 cells assessed as cell growth inhibition measured after 48 hrs in presence of uridine by SRB assay; settings: HT-29, 48 h
MCF7 [9] = test: Antiproliferative activity against human MCF7 cells assessed as cell growth inhibition measured after 48 hrs in presence of uridine by SRB assay; settings: MCF7, 48 h
SNB-75 = test: Antiproliferative activity against human SNB-75 cells assessed as cell growth inhibition measured after 48 hrs by sulforhodamine B assay; settings: SNB-75, 48 h
786-0 = test: Antiproliferative activity against human 786-0 cells assessed as cell growth inhibition measured after 48 hrs by sulforhodamine B assay; settings: 786-0, 48 h
SN12C = test: Antiproliferative activity against human SN12C cells assessed as cell growth inhibition measured after 48 hrs by sulforhodamine B assay
SW-620 = test: Antiproliferative activity against human SW-620 cells assessed as cell growth inhibition measured after 48 hrs by sulforhodamine B assay; settings: SW-620, 48 h
CAKI-1 = test: Antiproliferative activity against human CAKI-1 cells assessed as cell growth inhibition measured after 48 hrs by sulforhodamine B assay; settings: CAKI-1, 48 h
HCT-116 = test: Antiproliferative activity against human HCT-116 cells assessed as cell growth inhibition measured after 48 hrs by sulforhodamine B assay; settings: HCT-116, 48 h
HT-1080 [10] = test: Antiproliferative activity against human HT-1080 cells assessed as cell growth inhibition measured after 48 hrs in presence of uridine by SRB assay; settings: HT-1080, 48 h
SF-268 = test: Antiproliferative activity against human SF-268 cells assessed as cell growth inhibition measured after 48 hrs by sulforhodamine B assay; settings: SF-268, 48 h
UO-31 = test: Antiproliferative activity against human UO-31 cells assessed as cell growth inhibition measured after 48 hrs by sulforhodamine B assay; settings: UO-31, 48 h
M21 [11] = test: Antiproliferative activity against human M21 cells assessed as cell growth inhibition measured after 48 hrs in presence of uridine by SRB assay; settings: M21, 48 h
Hs-578T = test: Antiproliferative activity against human Hs-578T cells assessed as cell growth inhibition measured after 48 hrs by sulforhodamine B assay
NCI-H522 = test: Antiproliferative activity against human NCI-H522 cells assessed as cell growth inhibition measured after 48 hrs by sulforhodamine B assay; settings: NCI-H522, 48 h
HOP-92 = test: Antiproliferative activity against human HOP-92 cells assessed as cell growth inhibition measured after 48 hrs by sulforhodamine B assay; settings: HOP-92, 48 h
COLO 205 = test: Antiproliferative activity against human COLO 205 cells assessed as cell growth inhibition measured after 48 hrs by sulforhodamine B assay; settings: COLO 205, 48 h
K562 = test: Antiproliferative activity against human K562 cells assessed as cell growth inhibition incubated for 48 hrs by sulforhodamine B assay; settings: K562, 48 h
A549 = test: Antiproliferative activity against human A549/ATCC cells assessed as cell growth inhibition measured after 48 hrs by sulforhodamine B assay; settings: A549, 48 h
A498 = test: Antiproliferative activity against human A498 cells assessed as cell growth inhibition measured after 48 hrs by sulforhodamine B assay; settings: A498, 48 h
HOP-62 = test: Antiproliferative activity against human HOP-62 cells assessed as cell growth inhibition measured after 48 hrs by sulforhodamine B assay; settings: HOP-62, 48 h

IC50 (HCC 2998): 17 µM | IC50 (U-251): 617 nM | IC50 (OVCAR-8): 851 nM | IC50 (MOLT-4): 282 nM | IC50 (HT-29 [1]; read-out: IC50): 990 nM | IC50 (HT-29 [1]; read-out: pIC50 (converted)): 1020 nM | IC50 (DU-145): 1230 nM | IC50 (MCF7 [2]; read-out: IC50): 5.9 µM | IC50 (MCF7 [2]; read-out: pIC50 (converted)): 3.24 µM | IC50 (CCRF-CEM): 912 nM | IC50 (SK-MEL-2): 16.2 µM | IC50 (NCI-H23): 12.9 µM | IC50 (NCI-H322M): 12.9 µM | IC50 (MDA-MB-435): 4.47 µM | IC50 (HT-1080 [4]): 450 nM | IC50 (BT-549): 11.7 µM | IC50 (OVCAR-4): 22.4 µM | IC50 (SK-OV-3): 12.6 µM | IC50 (PC-3): 832 nM | IC50 (NCI-H460): 427 nM | IC50 (NCI-H226): 9.33 µM | IC50 (HCT-15): 251 nM | IC50 (OVCAR-5): 22.9 µM | IC50 (SK-MEL-28): 11.7 µM | IC50 (SK-MEL-5): 2450 nM | IC50 (MDA-MB-231): 11.7 µM | IC50 (RPMI-8226): 1380 nM | IC50 (T47D): 16.2 µM | IC50 [5]: 1500 nM | IC50 [6]: 810 nM | IC50 (ACHN): 1580 nM | IC50 (OVCAR-3): 6.61 µM | IC50 (HT-29 [8]): 27 µM | IC50 (MCF7 [9]): 18 µM | IC50 (786-0): 9.12 µM | IC50 (SW-620): 2750 nM | IC50 (HCT-116): 575 nM | IC50 (HT-1080 [10]): 7.4 µM | IC50 (NCI-H522): 1320 nM | IC50 (COLO 205): 2510 nM | IC50 (K562): 282 nM | IC50 (A549): 955 nM
SMILES: CCNC(=O)Nc1ccc(S(=O)(=O)Oc2ccccc2CC)cc1
IC50 (IGROV-1): 5.89 µM | IC50 (Malme-3M): 17.8 µM | IC50 (KM12): 1150 nM | IC50 (M21 [3]): 3000 nM | IC50 (RXF 393): 12.6 µM | IC50 (UACC-62): 2510 nM | IC50 (SNB-19): 3.63 µM | IC50 (UACC-257): 13.2 µM | IC50 (TK-10): 13.2 µM | IC50 (LOX IMVI): 417 nM | IC50 (SF-539): 2140 nM | IC50 (M14): 4.17 µM | IC50 (NCI/ADR-RES): 3.55 µM | IC50 (SR): 741 nM | IC50 [7]: 3.5 µM | IC50 (SF-295): 759 nM | IC50 (SNB-75): 9.12 µM | IC50 (SN12C): 7.24 µM | IC50 (CAKI-1): 759 nM | IC50 (SF-268): 2880 nM | IC50 (UO-31): 6.03 µM | IC50 (M21 [11]): 30 µM | IC50 (Hs-578T): 11.2 µM | IC50 (HOP-92): 6.61 µM | IC50 (A498): 5.89 µM | IC50 (HOP-62): 14.5 µM
